In ChEMBL document CHEMBL3832062, “DailyMed|setid=a9c47f08-bd02-4731-aaf7-42173155b2d0 | XENICAL- orlistat capsule|A-S Medication Solutions LLC”:

Assay: Pharmacokinetic parameters for Orlistat evaluated after of oral administration of Orlistat capsules.
Format: ADME, organism-based
Details: human, in vivo, dosed compound id 42, dosed compound name ORLISTAT, tissue Plasma

`CCCCCCCCCCC[C@@H](C[C@@H]1OC(=O)[C@H]1CCCCCC)OC(=O)[C@H](CC(C)C)NC=O` [ORLISTAT] gave a half-life of 1 to 2 h and a fraction unbound (read-out: Protein binding) of 0.01 to 0.99.
